ChEMBL document CHEMBL1149588, “Inhibition of colon cancer cell growth and antioxidant activity of bioactive compounds from Poncirus trifoliata (L.) Raf” (Bioorg Med Chem, 2007)
Calls of active or inactive are those of the source. No cut-off for these calls is given here.

Experiments:
[1] = system: HT-29; test: Antiproliferative activity against human HT29 cells at 5 uM after 24 hrs by MTT assay; assay type: functional, cell-based
[2] = Growth inhibition of monkey COS1 cells at 1.25 uM after 48 hrs by MTT assay; assay type: cell-based, Macaca mulatta; settings: rhesus monkey, cos-1, 48 h
[3] = Growth inhibition of monkey COS1 cells at 5 uM after 48 hrs by MTT assay; assay type: cell-based, Macaca mulatta; settings: rhesus monkey, cos-1, 48 h
[4] = Growth inhibition of monkey COS1 cells at 0.63 uM after 48 hrs by MTT assay; assay type: cell-based, Macaca mulatta; settings: rhesus monkey, cos-1, 48 h
[5] = Growth inhibition of monkey COS1 cells at 2.5 uM after 48 hrs by MTT assay; assay type: cell-based, Macaca mulatta; settings: rhesus monkey, cos-1, 48 h
[6] = system: HT-29; test: Induction of apoptosis in human HT29 cells at 5 uM; assay type: functional, cell-based

Compound	Activity [1]	Activity [2]	Activity [3]	Activity [4]	Activity [5]	Activity [6]
COC(=O)C(O)(CC(=O)O)CC(=O)O	Active	Non-toxic	Non-toxic	Non-toxic	Non-toxic	Active
CC[C@@]1(O)C(=O)OCc2c1cc1n(c2=O)Cc2cc3ccccc3nc2-1	–	–	–	–	–	Active
CCC(CC[C@@H](C)[C@H]1CC[C@H]2[C@@H]3CC=C4C[C@@H](O)CC[C@]4(C)[C@H]3CC[C@]12C)C(C)C (single isomer, unassigned) [BETA-SITOSTEROL]	Active	Non-toxic	Non-toxic	Non-toxic	Non-toxic	Active
